The source of these data is US6610720B2, “Method for treating or preventing emesis” (Merck Frosst Canada & Co., priority 2000, dated 2003).

SMILES strings stand for the structures. Entries after “also recorded” stand apart in the source; their conditions may differ. Where two headings read alike, the source gives them in different places. Marks after values point to notes of the source that are not given here.

Data set [1] has as its system humans. Conditions: cited from earlier work.
The test system of data set [2] is ferrets. Nature of the data set: Administration of alpha-2 adrenoceptor antagonists to ferrets (retching and vomiting). As to conditions: for Latency responders only / Retches / Vomits: mean±SEM; for Emesis following administration (in words): ferrets.
Method: The ferrets were housed in a humidity and temperature controlled environment with food (Marshall Premium ferret diet; Marshall Farms, North Rose, N.Y., U.S.A.) and water provided ad libitum. On the day of the experiment, ferrets were put into individual cages and left to habituate for at least 30 minutes. Fasting was not a pre-requisite of these experiments. Pre-treatment with a test compound or vehicle was performed using a subcutaneous, an intraperitoneal or an oral administration, 60 minutes prior to the emetic challenge. […] Drugs were freshly prepared on the day of the experiment. […] During that time, the number of retches (i.e. rhythmic contraction of the abdomen) and vomiting movements (i.e. oral expulsion or attempt to expel solid/liquid matter from the gastrointestinal tract) were recorded.
Data is expressed as mean±SEM.
Data set [3] relates to ferrets. Nature of the data set: Behavioural effects observed following the administration of RS14203 in ferrets. The format is in vivo, ferret (Mustela putorius furo). As to conditions: RS14203 1 mg/kg p.o. The source says:
(§1) Fasting was not a pre-requisite of these experiments.

In data set [4] the test system is ferrets. As to conditions: for Incidence / Retches / Vomits / Latency responders only: 60 min prior; for Retches / Vomits: 2 h observation.
Text: The anti-emetic activity of alpha-2 adrenoceptor agonists is preferably measured using, for instance, an in vivo emesis assay in the ferret. A variety of emetic stimuli may be employed including, for example, treatment with type IV cyclic nucleotide phosphodiesterase (PDE4) inhibitors (see Robichaud et al, Neuropharmacology (1999) 38, 289-297).
as §1

The subject of data set [5] is ferrets. As to conditions: doses ranging from 62.5-250 μg/kg.
Method: Male adult ferrets (Mustela putorius furo; 1-2 kg, Marshall Farms, North Rose, N.Y., U.S.A.) were used and experiments were conducted according to procedures previously described (Robichaud et al, 1999, supra). The ferrets were housed in a humidity and temperature controlled environment with food (Marshall Premium ferret diet; Marshall Farms, North Rose, N.Y., U.S.A.) and water provided ad libitum. On the day of the experiment, ferrets were put into individual cages and left to habituate for at least 30 minutes. Fasting was not a pre-requisite of these experiments. Pre-treatment with a test compound or vehicle was performed using a subcutaneous, an intraperitoneal or an oral administration, 60 minutes prior to the emetic challenge. Emesis was induced by PDE4 inhibitors administered orally (dosing volume=1 ml/kg) at a dose known to cause emesis (Robichaud et al, 1999, supra). Drugs were freshly prepared on the day of the experiment. […] During that time, the number of retches (i.e. rhythmic contraction of the abdomen) and vomiting movements (i.e. oral expulsion or attempt to expel solid/liquid matter from the gastrointestinal tract) were recorded.
Data set [6] relates to elderly patients. As to conditions: elderly patients undergoing intraocular surgery; cited from earlier work.
Data set [7] concerns dogs. As to conditions: i.m.; cited from earlier work.
In data set [8] the test system is children (3-12 yr). Conditions: cited from earlier work.
[9] abbreviates: emetic agent CT-2450 30 mg/kg p.o., pre-treatment 250 μg/kg s.c.
Where [10] appears, read: emetic agent R-rolipram 3 mg/kg p.o., pre-treatment 250 μg/kg s.c.
The mark [11] stands for this setting: emetic agent R-rolipram 3 mg/kg p.o., pre-treatment 250 μg/kg s.c., mean ± SEM.
Setting [12] is: emetic agent RS14203 1 mg/kg p.o., pre-treatment 62.5 μg/kg s.c., mean ± SEM.
The mark [13] stands for this setting: emetic agent RS14203 1 mg/kg p.o., pre-treatment 125 μg/kg s.c.
The mark [14] stands for this setting: emetic agent RS14203 1 mg/kg p.o., pre-treatment 125 μg/kg s.c., mean ± SEM.
Where [15] appears, read: emetic agent RS14203 1 mg/kg p.o., pre-treatment 250 μg/kg s.c.
Where [16] appears, read: emetic agent RS14203 1 mg/kg p.o., pre-treatment 250 μg/kg s.c., mean ± SEM.
[17] abbreviates: pre-treatment 250 μg/kg s.c., listed as Clonidine.

On to `COC(=O)[C@@H]1[C@H]2C[C@H]3c4[nH]c5ccccc5c4CCN3C[C@@H]2CC[C@@H]1O` [Yohimbine, yohimbine], for which, in data set [1], the “Adverse effects following parenteral administration” value was “nausea and vomiting”. In data set [2] (3 mg/kg i.p.), the Incidence is 3/3, the Latency responders only came to 7 ± 1 min, the Retches is listed as 18.7 ± 3.8 n° episodes and the Vomits was 5.3 ± 1.8 n° episodes. Also, in data set [2] (3 mg/kg p.o.), the Incidence was 3/4, the Latency responders only is on record as 30.3 ± 13.4 min, the Retches is listed as 9.8 ± 6.2 n° episodes and the Vomits was found to be 3.2 ± 1.2 n° episodes. Also, in data set [2] (3 mg/kg s.c.), the Incidence is reported as 2/3, the Latency responders only worked out at 9.5 ± 2.5 min, the Retches is on record as 29.7 ± 17.6 n° episodes and the Vomits is reported as 3.0 ± 1.7 n° episodes. In addition, the “Emesis following administration (in words)” value in data set [2] is “induced retching and vomiting in all ferrets treated; also recorded: caused unexpected retching and vomiting”.

Take `CS(=O)(=O)NCCN1C(=O)NC[C@]12CCN1CCc3c(oc4ccccc34)[C@@H]1C2` [MK-467]: in data set [2] (1 mg/kg p.o.), the Incidence is 0/3, the Retches was found to be 0 n° episodes and the Vomits is given as 0 n° episodes. Besides, in data set [2] (3 mg/kg p.o.), the Incidence is listed as 1/3, the Latency responders only turned out to be 12 min, the Retches worked out at 4 ± 4 n° episodes and the Vomits turned out to be 0.3 ± 0.3 n° episodes. Also, in data set [2] (10 mg/kg po), the Incidence was 2/3, the Latency responders only is recorded as 18.5 ± 2.5 min, the Retches amounted to 12 ± 6 n° episodes and the Vomits was 1.3 ± 0.9 n° episodes. The “Emesis following administration (in words)” value in data set [2] is “Emesis was also recorded”.

Regarding `O=[N+]([O-])c1cccc(-c2cc(Cc3ccncc3)cc3cccnc23)c1` [RS14203], the “Behavioural effects produced in addition to emesis” value in data set [3] was “salivation, hyperventilation, gagging and clawing at the mouth”.

For the molecule `CN1CC[C@]2(CCN3CCc4c(oc5ccccc45)[C@@H]3C2)N(C)C1=O.Cl` [MK-912], in data set [2] (1 mg/kg p.o.), the Incidence is 2/8, the Latency responders only came out at 13.0 ± 5.0 min, the Retches turned out to be 3.2 ± 2.3 n° episodes and the Vomits stood at 0.4 ± 0.3 n° episodes. Further, in data set [2], the “Emesis following administration (in words)” value is reported as “Emesis was also recorded”.

Turning to `Clc1cccc(Cl)c1N=C1NCCN1` [clonidine], the “Effect on emesis induced by CT-2450” value in data set [4] (CT-2450 30 mg/kg p.o., pre-treatment 250 μg/kg, all animals treated) is “abolished emesis”. For the same molecule, the “Animals with complete protection against R-rolipram-induced emesis” value in data set [4] (R-rolipram 3 mg/kg p.o., pre-treatment 250 μg/kg) is “two out of three”. Besides, in data set [4] (RS14203 1 mg/kg p.o., pre-treatment 250 μg/kg), the “Animals showing complete protection against RS14203-induced emesis” value was “five out of six”. Further, in data set [4] (RS14203 1 mg/kg p.o., pre-treatment 62.5-250 μg/kg), the “Effect on number of retches and vomits induced by RS14203” value is reported as “dose-dependently decreased”. In addition, the Incidence in data set [4] (setting [9]) was 0/5; in data set [4] (setting [10]) it was 1/3; in data set [4] (emetic agent RS14203 1 mg/kg p.o., pre-treatment 62.5 μg/kg s.c.), 2/3; in data set [4] (setting [13]), 1/3; in data set [4] (setting [15]) it was 1/6. Besides, the Retches in data set [4] (setting [9]) is on record as 0* n° episodes; in data set [4] (setting [11]), 54.3 ± 54.3 n° episodes; in data set [4] (setting [12]), 9.3 ± 7.9 n° episodes; in data set [4] (setting [14]), 2 ± 2 n° episodes; in data set [4] (setting [16]), 0.2 ± 0.2 n° episodes. The Vomits is 0* n° episodes in data set [4] (setting [9]); 5.7 ± 5.7 n° episodes in data set [4] (setting [11]); 1.7 ± 1.2 n° episodes in data set [4] (setting [12]); 1 ± 1 n° episodes in data set [4] (setting [14]); 0.2 ± 0.2 n° episodes in data set [4] (setting [16]). Moreover, the Latency responders only in data set [4] (setting [10]) is 5 min; in data set [4] (setting [12]), 55.0 ± 49.0 min; in data set [4] (setting [13]), 72 min; in data set [4] (setting [15]), 111 min. For the same molecule, the “Effect on RS14203-induced gagging or clawing at the mouth” value in data set [3] was “no effect”. Further, the Clawing at mouth is 2/3 in data set [3] (pre-treatment 62.5 μg/kg s.c.), 1/3 in data set [3] (pre-treatment 125 μg/kg s.c.) and 5/6 in data set [3] (pre-treatment 250 μg/kg s.c.). In addition, the Gagging is on record as 1/3 in data set [3] (pre-treatment 62.5 μg/kg s.c.), 1/3 in data set [3] (pre-treatment 125 μg/kg s.c.) and 5/6 in data set [3] (pre-treatment 250 μg/kg s.c.). The Hyperventilation in data set [3] (pre-treatment 62.5 μg/kg s.c.) is on record as 2/3; in data set [3] (pre-treatment 125 μg/kg s.c.), 2/3; in data set [3] (pre-treatment 250 μg/kg s.c.), “one out of six”; in data set [3] (setting [17]), 1/6. For the same molecule, the Salivation in data set [3] (pre-treatment 62.5 μg/kg s.c.) was 2/3; in data set [3] (pre-treatment 125 μg/kg s.c.) it was 1/3; in data set [3] (pre-treatment 250 μg/kg s.c.), “none of the animals”; in data set [3] (setting [17]), 0/6. In addition, in data set [5], the “Emesis triggered by the compound by itself” value is reported as “did not trigger emesis”. Also, in data set [5] (appeared dose-related), the “Sedation following the administration” value is on record as “light sedation”. In data set [6], the Effect on emesis entry is “no effect on emesis”. The Sedation result in data set [6] is given as “induced sedation”. Further, the “Emetic ED50” value in data set [7] is 0.025 mg/kg. Besides, the “Incidence and frequency of vomiting following strabismus surgery” value in data set [8] was “lower the incidence and frequency of vomiting”.
